According to patent publication US9650339B2, “Inhibitors of histone demethylases” (Gilead Sciences, Inc., priority 2013, dated 2017):

What was measured:
[1] = molecular target: KDM6A (UTX) (Homo sapiens, UniProt O15550); assay: Histone lysine demethylase AlphaLISA assay, KDM6A; type: biochemical; details: read-out: KDM6A HDME Inhibition IC50
Summary of the method: (§1)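 AlphaLISA demethylation readout: enzyme preincubated 10 min, then 10 min with compounds in 3% DMSO buffer, before biotinylated methyl-lysine histone peptide substrate with 25 μM L-Asc and 10 μM α-KG, room temperature. Acceptor beads then streptavidin donor beads added, dark incubation, plates read.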

[2] = molecular target: T1, KDM5B (Homo sapiens, UniProt Q9UGL1); assay: Histone lysine demethylase immunofluorescence assay, U2OS cells transfected with KDM5B; type: cell-based; details: U2OS cells transfected with pCMVHA KDM5B; mark detected H3K4me2; 20 hours
T1 construct: (a.a. 1-752); host or cells: U2OS
T1 sequence (Q9UGL1 1-752): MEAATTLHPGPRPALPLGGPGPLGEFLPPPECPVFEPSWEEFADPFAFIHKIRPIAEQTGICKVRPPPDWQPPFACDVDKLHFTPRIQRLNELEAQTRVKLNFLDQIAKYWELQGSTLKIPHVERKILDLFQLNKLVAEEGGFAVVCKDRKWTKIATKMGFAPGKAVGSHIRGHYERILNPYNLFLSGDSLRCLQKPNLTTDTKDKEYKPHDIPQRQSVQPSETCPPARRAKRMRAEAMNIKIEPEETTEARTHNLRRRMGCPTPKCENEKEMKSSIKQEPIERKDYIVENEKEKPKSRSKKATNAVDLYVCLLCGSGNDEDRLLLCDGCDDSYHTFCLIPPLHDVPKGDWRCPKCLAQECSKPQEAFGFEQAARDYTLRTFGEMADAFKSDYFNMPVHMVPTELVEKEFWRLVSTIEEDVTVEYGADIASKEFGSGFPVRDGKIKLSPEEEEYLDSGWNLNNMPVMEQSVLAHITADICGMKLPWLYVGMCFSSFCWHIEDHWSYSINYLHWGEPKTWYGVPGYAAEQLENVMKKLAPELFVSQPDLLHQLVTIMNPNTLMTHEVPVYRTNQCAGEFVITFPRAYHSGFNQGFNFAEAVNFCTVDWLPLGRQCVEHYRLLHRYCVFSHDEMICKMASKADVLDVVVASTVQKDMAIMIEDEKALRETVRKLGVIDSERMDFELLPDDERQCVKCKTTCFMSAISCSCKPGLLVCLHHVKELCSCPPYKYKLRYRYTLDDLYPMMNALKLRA
Summary of the method: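 U2OS cells were transiently transfected with HA-tagged demethylase and reseeded after 6 h into compound-containing DMEM/10% FBS for 20 h. Cells were fixed in formaldehyde and immunostained for HA and the relevant histone methyl mark, then imaged. IC50 is based on mean mark staining in HA+ transfected cells.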

[3] = molecular target: T2, KDM3B (JMJD1B) (Homo sapiens, UniProt Q7LBC6); assay: Histone lysine demethylase AlphaLISA assay, KDM3B; type: biochemical; details: read-out: KDM3B HDME Inhibition IC50
T2 construct: 842-1761; host or cells: Bac (baculovirus system)
T2 sequence (Q7LBC6 842-1761): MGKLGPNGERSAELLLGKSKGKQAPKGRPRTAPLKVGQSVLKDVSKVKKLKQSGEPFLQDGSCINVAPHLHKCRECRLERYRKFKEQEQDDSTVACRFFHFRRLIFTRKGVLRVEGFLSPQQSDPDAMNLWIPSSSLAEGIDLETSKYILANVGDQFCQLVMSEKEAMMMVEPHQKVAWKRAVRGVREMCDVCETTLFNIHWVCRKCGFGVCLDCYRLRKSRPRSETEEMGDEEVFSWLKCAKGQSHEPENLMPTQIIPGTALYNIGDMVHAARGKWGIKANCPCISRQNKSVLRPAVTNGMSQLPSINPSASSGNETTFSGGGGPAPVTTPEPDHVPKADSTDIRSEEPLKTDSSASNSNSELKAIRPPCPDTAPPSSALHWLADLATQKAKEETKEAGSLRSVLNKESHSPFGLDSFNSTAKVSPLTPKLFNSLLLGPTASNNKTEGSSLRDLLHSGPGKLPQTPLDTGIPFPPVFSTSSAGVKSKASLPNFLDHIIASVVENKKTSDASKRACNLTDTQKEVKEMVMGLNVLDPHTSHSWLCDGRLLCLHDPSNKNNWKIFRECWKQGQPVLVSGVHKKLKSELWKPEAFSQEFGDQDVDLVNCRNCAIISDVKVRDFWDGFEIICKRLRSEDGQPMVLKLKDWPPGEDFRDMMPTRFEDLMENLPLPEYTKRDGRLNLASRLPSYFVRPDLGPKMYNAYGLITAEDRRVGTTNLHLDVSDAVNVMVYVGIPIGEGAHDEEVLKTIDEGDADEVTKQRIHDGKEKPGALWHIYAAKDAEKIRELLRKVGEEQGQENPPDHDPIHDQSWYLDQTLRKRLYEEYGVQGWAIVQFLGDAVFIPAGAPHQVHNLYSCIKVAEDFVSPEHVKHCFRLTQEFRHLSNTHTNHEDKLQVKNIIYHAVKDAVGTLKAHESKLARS
Summary of the method: as §1

Sequence of KDM6A (UTX) (O15550 919-1401): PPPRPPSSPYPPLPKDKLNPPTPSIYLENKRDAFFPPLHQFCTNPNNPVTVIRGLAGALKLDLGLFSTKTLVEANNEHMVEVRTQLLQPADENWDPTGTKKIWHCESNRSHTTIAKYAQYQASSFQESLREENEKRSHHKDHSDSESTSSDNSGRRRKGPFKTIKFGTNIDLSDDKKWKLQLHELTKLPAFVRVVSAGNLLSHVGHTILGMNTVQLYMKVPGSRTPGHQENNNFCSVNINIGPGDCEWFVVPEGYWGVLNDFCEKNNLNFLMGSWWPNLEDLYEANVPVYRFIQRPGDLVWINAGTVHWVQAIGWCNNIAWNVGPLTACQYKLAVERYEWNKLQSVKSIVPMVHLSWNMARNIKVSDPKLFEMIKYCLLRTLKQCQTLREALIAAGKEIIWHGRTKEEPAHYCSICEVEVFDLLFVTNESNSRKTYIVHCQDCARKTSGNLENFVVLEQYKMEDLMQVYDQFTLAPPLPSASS

Structure (SMILES)	IC50 [1]	IC50 [2]	IC50 [3]
CCN(CC)CCCCN(Cc1cc(CNC(=O)C(F)(F)F)ccn1)C(=O)C(F)(F)F [Compound 6, N-[4-(diethylamino)butyl]-- 2,2,2-trifluoro-N-({4-[(trifluoroacetamido)-methyl]pyridin-2-yl}methyl)acetamide]	> 2.5 µM	< 0.25 µM	> 2.5 µM
CN1CCCC1CCNCc1cc(/C=N/C2CC2)ccn1 (stereo not drawn) [Compound 40, N-{[2-({[2-(l-methylpyrrolidin-2-yl)ethyl]amino}methyl)-pyridin-4-yl]methylidene}-cyclopropanamine]	> 2.5 µM	< 0.25 µM	> 2.5 µM
CN(C)CCCNCc1cc(CN)ccn1 [Compound 3, [2-({[3-(dimethylamino)propyl]-amino}methyl)pyridin-4-yl]methanamine]	> 2.5 µM	< 0.25 µM	> 2.5 µM
COc1ccccc1CN1CCC(NC(=O)CNCc2cc(CN)ccn2)CC1 [Compound 9, 2-({[4-(aminomethyl)pyridin-2-yl]methyl}amino)-N-{1-[(2-methoxyphenyl)methyl]-piperidin-4-yl}acetamide]	> 2.5 µM	0.25 to 2.5 µM	> 2.5 µM
CN(C)CCCCNCc1cc(CNC2CC2)ccn1 [Compound 10, N-{[2-({[4-(dimethylamino)butyl]-amino}methyl)pyridin-4-yl]methyl}-cyclopropanamine]	> 2.5 µM	> 2.5 µM	> 2.5 µM
CN(C)C(=O)CNCc1cc(CNCCF)ccn1 [Compound 14, 2-{[(4-{[(2-fluoroethyl)amino]-methyl}pyridin-2-yl)methyl]amino}-N,N-dimethylacetamide]	> 2.5 µM	> 2.5 µM	> 2.5 µM
CCN(CC)CCCCNCc1cc(CNC(=O)C(F)(F)F)ccn1 [Compound 1, N-{[2-({[4-(diethylamino)butyl]-amino}methyl)pyridin-4-yl]methyl}-2,2,2-trifluoroacetamide]	> 2.5 µM	< 0.25 µM	> 2.5 µM
CCSCCNCc1cc(/C=N/C2CC2)ccn1 [Compound 39, N-{[2-({[2-(ethylsulfanyl)-ethyl]amino}methyl)pyridin-4-yl]methylidene}-cyclopropanamine]	> 2.5 µM	> 2.5 µM	> 2.5 µM
C(=N/C1CC1)/c1ccnc(CNCCCN2CCCC2)c1 [Compound 42, N-{[2-({[3-(pyrrolidin-1-yl)propyl]amino}-methyl)pyridin-4-yl]methylidene}-cyclopropanamine]	> 2.5 µM	< 0.25 µM	> 2.5 µM
CN(C)CCCNCc1cc(/C=N/CCN(C)C)ccn1 [Compound 38, ({4-[{[2-(dimethylamino)ethyl]-imino}methyl]pyridin-2-yl}methyl)[3-(dimethylamino)-propyl]amine]	> 2.5 µM	< 0.25 µM	> 2.5 µM
CN(CCCn1cccn1)C(=O)CNCc1cc(/C=N/C2CC2)ccn1 [Compound 52, 2-[({4-[N-cyclopropyl-carboximidoyl]-pyridin-2-yl}methyl)amino]-N-methyl-N-[3-(1H-pyrazol-1-yl)propyl]acetamide]	> 2.5 µM	0.25 to 2.5 µM	> 2.5 µM

Next, values leading:

IC50 [1]	IC50 [2]	IC50 [3]	Structure (SMILES)
> 2.5 µM	> 2.5 µM	> 2.5 µM	C#CCN(C)C(=O)CNCc1cc(/C=N/C2CC2)ccn1 [Compound 56, 2-[({4-[N-cyclopropyl-carboximidoyl]-pyridin-2-yl}methyl)amino]-N-methyl-N-(prop-2-yn-1-yl)acetamide]
> 2.5 µM	< 0.25 µM	> 2.5 µM	CN(C)C/C=C/CNCc1cc(C=O)ccn1 [Compound 98, 2-({[(2E)-4-(dimethylamino)but-2-en-1-yl]amino}-methyl)pyridine-4-carbaldehyde]
> 2.5 µM	< 0.25 µM	> 2.5 µM	CCN(CC)CCCCN(Cc1cc(C=O)ccn1)C(=O)C(F)(F)F [Compound 115, N-[4-(diethylamino)butyl]-2,2,2-trifluoro-N-[(4-formylpyridin-2-yl)methyl]acetamide]
> 2.5 µM	> 2.5 µM	> 2.5 µM	CON=Cc1ccnc(CNCCCN(C)C)c1 [Compound 64, [3-(dimethylamino)-propyl]({4-[(methoxyimino)-methyl]pyridin-2-yl}methyl)amine]
> 2.5 µM	0.25 to 2.5 µM	> 2.5 µM	O=Cc1ccnc(CNCC(=O)N2CCC[C@@H]2CN2CCCC2)c1 [Compound 102, 2-[({2-oxo-2-[(2R)-2-(pyrrolidin-1-ylmethyl)pyrrolidin-1-yl]ethyl}amino)-methyl]pyridine-4-carbaldehyde]
